From patent US8299100B2, “Potent and selective neuronal nitric oxide synthase inhibitors with improved membrane permeability” (Northwestern University, priority 2009, dated 2012)
Read-outs that look alike come from different tables or passages of the source.

Legend:
[1] = molecular target: bovine eNOS (Bos taurus, UniProt P29473); assay: NOS hemoglobin capture assay, purified recombinant enzyme (eNOS); details: for selectivity n/e: ratio of Ki (eNOS) to Ki (nNOS)
[2] = molecular target: rat nNOS (Rattus norvegicus, UniProt P29476); assay: NOS hemoglobin capture assay, purified recombinant enzyme (nNOS)
[3] = molecular target: murine macrophage iNOS (Mus musculus, UniProt P29477); assay: NOS hemoglobin capture assay, purified recombinant enzyme (iNOS); details: for selectivity n/i: ratio of Ki (iNOS) to Ki (nNOS)
[4] = molecular target: nNOS (Rattus norvegicus, UniProt P29476); assay: cell-based assay of inhibitor potency (membrane permeability); details: for IC50: Table 3, cell-based assay; for increase in cell membrane permeation: relative to 1, from IC50/IC50(cell)
[5] = read-out: Ki nNOS, Table 4, Ki calculated from measured IC50, 10 μM L-arginine

Compound	Ki [1] [µM]	Ki [2] [µM]	Ki [3] [µM]	IC50 [4] [µM]	increase in cell membrane permeation [4] [fold]	selectivity n/e ([1]; Table 4)	selectivity n/i ([3]; Table 4)	other results
Cc1cc(N)nc(CC2CNCC2OCCNC2CC2c2cccc(F)c2)c1 [Compound 2b, 6-(((3S,4S)/(3R,4R)-4-(2-(2-(3-Fluorophenyl)cyclopropylamino)ethoxy)pyrrolidin-3-yl)methyl)-4-methylpyridin-2-amine]	68	0.046	11	9	2.4			selectivity n/e ([1]; Table 2): 1500; IC50 [2]: 0.4 µM; selectivity n/i ([3]; Table 2): 220; IC50/IC50(cell) × 10^−2 ([4]; ratio of purified nNOS IC50 to cell-based IC50, indicates relative membrane permeability): 4.4 × 10^−2
Cc1cc(N)nc(CC2CNCC2OCCNCC(F)c2cccc(F)c2)c1 [Compound 2c, 6-(((3S,4S)/(3R,4R)-4-(2-(2-Fluoro-2-(3-fluorophenyl)propylamino)ethoxy)pyrrolidin-3-yl)methyl)-4-methylpyridin-2-amine]				10	1.7			
Cc1cc(N)nc(C[C@@H]2CNC[C@@H]2OCCNCC(F)(F)c2ccc(F)cc2)c1 [Compound 2dc]						190	1200	Ki ([1]; read-out: Ki eNOS, Table 4, Ki calculated from measured IC50, 10 μM L-arginine): 31 µM; loss of potency (nNOS) ([2]; compared to 2db): 4.5 fold; Ki [2, 5]: 0.16 µM; Ki ([3]; read-out: Ki iNOS, Table 4, Ki calculated from measured IC50, 10 μM L-arginine): 190 µM
CC1CC(N)=NC(C[C@@H]2CNC[C@@H]2OCCNCC(F)(F)c2ccccc2)C1 (stereo partly drawn) [Compound 2e]	130	0.17	26			770	150	drop in potency against nNOS ([2]; compared to 2dd): 2 fold; better binding to iNOS ([3]; compared to 2dd): more than 3 fold
Cc1cc(N)nc(C[C@H]2CNC[C@H]2OCCNCC(F)(F)C2CCCCN2)c1 (stereo partly drawn) [Compound 2f]	64	2.7	450			24	170	

Further lines, with some results ahead:

Ki [1] [µM]	Ki [2] [µM]	Ki [3] [µM]	IC50 [4] [µM]	increase in cell membrane permeation [4] [fold]	selectivity n/e ([1]; Table 4)	selectivity n/i ([3]; Table 4)	Compound	other results
			19	2.0			Cc1cc(N)nc(CC2CNCC2OCCNCC(F)(F)c2cccc(F)c2)c1 [Compound 2d, 6-(((3S,4S)/(3R,4R)-4-(2-(2,2-Difluoro-2-(3-fluorophenypethylamino)ethoxy)pyrrolidin-3-yemethyl)-4-methylpyridin-2-amine]	IC50 ([2]; Table 3, purified enzyme assay (nNOS)): 0.7 µM; Ki ([2]; read-out: Ki nNOS, Table 2, Ki calculated from measured IC50, 10 μM L-arginine): 0.08 µM; Ki [2, 5]: 0.08 µM; drop in potency (nNOS) ([2]; relative to 2c): 2.2 fold
110	0.39	130					Cc1cc(N)nc(C[C@H]2CNC[C@H]2OCCNCC(F)(F)c2cccc(F)c2)c1 [Compound 2da]	loss of potency (nNOS) ([2]; compared to racemic 2d): five-fold less potent
140	0.036	51					Cc1cc(N)nc(C[C@@H]2CNC[C@@H]2OCCNCC(F)(F)c2cccc(F)c2)c1 [Compound 2db]	lower Ki (nNOS) ([2]; 2db compared to 2da): 10 fold
	0.085	85					Cc1cc(N)nc(C[C@@H]2CNC[C@@H]2OCCNCC(F)(F)c2ccccc2)c1 [Compound 2dd]	
